Assay results reported in patent US10118901B2 (priority 2013, dated 2018).

How the values were obtained:
Assay type in all cases: cell-based, human
[1] = system: K-562; assay: NCI-60 screen at 10 μM: K-562; details: Leukemia K-562; 10 μM single dose; 48 hrs
Experimental: (§1) NL-101 and CY-102 was sent to U.S. National Cancer Institute (NCI) for NCI 60-cell line screening using a single compound dose (10 μM).
(§2) The human tumor cell lines of the cancer screening panel were grown in RPMI 1640 medium containing 5% fetal bovine serum (5% FBS) and 2 mM L-glutamine. For a typical screening experiment, cells were inoculated into 96-well microtiter plates in 100 μL, at plating densities ranging from 5,000 to 40,000 cells/well depending on the doubling time of individual cell lines. After cell inoculation, the microtiter plates were incubated at 37° C., 5% CO2, 95% air, and 100% relative humidity for 24 h prior to addition of experimental compounds. […]
(§3) Following drug addition, the plates were incubated for an additional 48 hrs at 37° C., 5% CO2, 95% air, and 100% relative humidity. […] Bound stain was subsequently solubilized with 10 mM trizma base, and the absorbance was read on an automated plate reader at a wavelength of 515 nm. […]
(§4) Using the seven absorbance measurements [time zero, (Tz), control growth, (C), and test growth in the presence of drug at the 10 μM concentration levels (Ti)], percentage growth was calculated at each of the drug concentrations levels. Percentage growth inhibition was calculated as: [(Ti−Tz)/(C−Tz)]×100 for which Ti>/=Tz or [(Ti−Tz)/Tz]×100 for which Ti<Tz.

[2] = system: SR; assay: NCI-60 screen at 10 μM: SR; details: Leukemia SR; 10 μM single dose; 48 hrs
Experimental: as §1, §2, §3, §4

[3] = system: NCI-H226; assay: NCI-60 screen at 10 μM: NCI-H226; details: NSCLC NCI-H226; 10 μM single dose; 48 hrs
Experimental: as §1, §2, §3, §4

[4] = system: NCI-H322M; assay: NCI-60 screen at 10 μM: NCI-H322M; details: NSCLC NCI-H322M; 10 μM single dose; 48 hrs
Experimental: as §1, §2, §3, §4

[5] = system: HCT-116; assay: NCI-60 screen at 10 μM: HCT-116; details: Colon Cancer HCT-116; 10 μM single dose; 48 hrs
Experimental: as §1, §2, §3, §4

[6] = system: HCT-15; assay: NCI-60 screen at 10 μM: HCT-15; details: Colon Cancer HCT-15; 10 μM single dose; 48 hrs
Experimental: as §1, §2, §3, §4

[7] = system: SNB-19; assay: NCI-60 screen at 10 μM: SNB-19; details: CNS Cancer (Glioma) SNB-19; 10 μM single dose; 48 hrs
Experimental: as §1, §2, §3, §4

[8] = system: SNB-75; assay: NCI-60 screen at 10 μM: SNB-75; details: CNS Cancer (Glioma) SNB-75; 10 μM single dose; 48 hrs
Experimental: as §1, §2, §3, §4

[9] = system: LOX IMVI; assay: NCI-60 screen at 10 μM: LOX IMVI; details: Melanoma LOX IMVI; 10 μM single dose; 48 hrs
Experimental: as §1, §2, §3, §4

[10] = system: MALME-3M; assay: NCI-60 screen at 10 μM: MALME-3M; details: Melanoma MALME-3M; 10 μM single dose; 48 hrs
Experimental: as §1, §2, §3, §4

[11] = system: M14; assay: NCI-60 screen at 10 μM: M14; details: Melanoma M14; 10 μM single dose; 48 hrs
Experimental: as §1, §2, §3, §4

[12] = system: MDA-MB-435; assay: NCI-60 screen at 10 μM: MDA-MB-435; details: Melanoma MDA-MB-435; 10 μM single dose; 48 hrs
Experimental: as §1, §2, §3, §4

[13] = system: SK-MEL-2; assay: NCI-60 screen at 10 μM: SK-MEL-2; details: Melanoma SK-MEL-2; 10 μM single dose; 48 hrs
Experimental: as §1, §2, §3, §4

[14] = system: OVCAR-3; assay: NCI-60 screen at 10 μM: OVCAR-3; details: Ovarian Cancer OVCAR-3; 10 μM single dose; 48 hrs
Experimental: as §1, §2, §3, §4

[15] = system: OVCAR-5; assay: NCI-60 screen at 10 μM: OVCAR-5; details: Ovarian Cancer OVCAR-5; 10 μM single dose; 48 hrs
Experimental: as §1, §2, §3, §4

[16] = system: NCI/ADR-RES; assay: NCI-60 screen at 10 μM: NCI/ADR-RES; details: Ovarian Cancer NCI/ADR-RES; 10 μM single dose; 48 hrs
Experimental: as §1, §2, §3, §4

[17] = system: SK-OV-3; assay: NCI-60 screen at 10 μM: SK-OV-3; details: Ovarian Cancer SK-OV-3; 10 μM single dose; 48 hrs
Experimental: as §1, §2, §3, §4

[18] = system: CAKI-1; assay: NCI-60 screen at 10 μM: CAKI-1; details: Renal Cancer CAKI-1; 10 μM single dose; 48 hrs
Experimental: as §1, §2, §3, §4

[19] = system: RXF 393; assay: NCI-60 screen at 10 μM: RXF 393; details: Renal Cancer RXF 393; 10 μM single dose; 48 hrs
Experimental: as §1, §2, §3, §4

[20] = system: SN12C; assay: NCI-60 screen at 10 μM: SN12C; details: Renal Cancer SN12C; 10 μM single dose; 48 hrs
Experimental: as §1, §2, §3, §4

[21] = system: UO-31; assay: NCI-60 screen at 10 μM: UO-31; details: Renal Cancer UO-31; 10 μM single dose; 48 hrs
Experimental: as §1, §2, §3, §4

[22] = system: DU-145; assay: NCI-60 screen at 10 μM: DU-145; details: Prostate Cancer DU-145; 10 μM single dose; 48 hrs
Experimental: as §1, §2, §3, §4

[23] = system: MCF7; assay: NCI-60 screen at 10 μM: MCF7; details: Breast Cancer MCF7; 10 μM single dose; 48 hrs
Experimental: as §1, §2, §3, §4

[24] = system: HS 578T; assay: NCI-60 screen at 10 μM: HS 578T; details: Breast Cancer HS 578T; 10 μM single dose; 48 hrs
Experimental: as §1, §2, §3, §4

SMILES	Growth % [1] [%]	Growth % [2] [%]	Growth % [3] [%]	Growth % [4] [%]	Growth % [5] [%]	Growth % [6] [%]	Growth % [7] [%]	Growth % [8] [%]	Growth % [9] [%]	Growth % [10] [%]	Growth % [11] [%]	Growth % [12] [%]	Growth % [13] [%]	Growth % [14] [%]	Growth % [15] [%]	Growth % [16] [%]	Growth % [17] [%]	Growth % [18] [%]	Growth % [19] [%]	Growth % [20] [%]	also measured
Cn1c(CCCCCCC(=O)NO)nc2cc(N(CCCl)CCCl)ccc21 [NL-101]	31.63	29.62	60.27	75.30	23.73	76.48	55.62	19.79	−23.43	28.59	39.93	49.07	37.31	50.40	66.28	77.80	34.40	27.64	5.95	17.91	Growth % [21]: 63.69%; Growth % [22]: 18.47%; Growth % [23]: 37.24%; Growth % [24]: 24.01%
Cn1c(CCNCc2ccc(/C=C/C(=O)NO)cc2)nc2cc(N(CCCl)CCCl)ccc21 [CY-102]	1.07	0.09	−20.77	−15.30	−1.84	9.96	−10.81	−48.45	−26.41	−64.17	−76.75	−73.24	−21.36	−55.02	−3.75	17.78	−41.53	−25.49	−35.55	−1.53	Growth % [21]: −9.19%; Growth % [22]: −16.06%; Growth % [23]: −15.28%; Growth % [24]: 8.17%
